As a reminder, the Kd is the concentration at which binding is half-saturated.

Conditions in all cases: 10 mM Tris-HCl, pH 7.4
Assay [1] has as its system DNA aptamer or structured DNA CTTACGACAAACTTTTGGGTATCTGGTTGGGAGGTTCTGTCGTAAG
The subject of assay [2] is DNA aptamer or structured DNA CTTACGACACAGGGCGTGGAGTGGCTGGGCTTCAAGGGGTCGTAAG
Assay [3] relates to DNA aptamer or structured DNA CTTACGACACAGGGGGGGGCTAGGGTGCGCGGAAGCTGGTCGTAAG
In assay [4] the test system is DNA aptamer or structured DNA CTTACGACACAGGGGGTGGCTAGGGTGCGCGGGAGCTGGTCGTAAG
In assay [5] the test system is DNA aptamer or structured DNA CTTACGACAGGCGGTGTGGTGCTGGGAATAGGGATGGTGTCGTAAG
Assay [6] concerns DNA aptamer or structured DNA CTTACGACATGGGATGTAAGTTAGTGGGTCGGATCCGGGTCGTAAG
Assay [7] relates to DNA aptamer or structured DNA CTTACGACCTGTTCTGAGGGTCAACGGTGGTGTAGTCGGTCGTAAG
For assay [8], the system named is DNA aptamer or structured DNA CTTACGACGGGGGTGTGGCTAGGGGTGGCGCGGGATCCGTCGTAAG
Assay [9] concerns DNA aptamer or structured DNA CTTACGACGGGGTTCAGAGGGTCAACGGTGGTGTTGTCGTCGTAAG
Assay [10] relates to DNA aptamer or structured DNA CTTACGACGGGTGCTGTTGGTTCTAGGGTTAGGATGGCGTCGTAAG
The subject of assay [11] is DNA aptamer or structured DNA CTTACGACGGTCTTTTGGGTGTTCTGGGTGGGAGGAGCGTCGTAAG
Assay [12] relates to DNA aptamer or structured DNA CTTACGACTAGGTGGGGGTCGGCCATGGGAGTGGGGTAGTCGTAAG
The test system of assay [13] is DNA aptamer or structured DNA CTTACGACTAGGTGTGGGTCGGCCATTAGTGGAGGGTAGTCGTAAG
The subject of assay [14] is DNA aptamer or structured DNA CTTACGACTAGGTGTGGGTCGGCTCCGAATGGAGGGTAGTCGTAAG
The subject of assay [15] is DNA aptamer or structured DNA CTTACGACTAGTCGGTGGGGGGTAGGCGGAGGGTTGTTGTCGTAAG
Assay [16] has as its system DNA aptamer or structured DNA CTTACGACTAGTTCCGGGTAGGGGTAGGTGTGGTTGTGGTCGTAAG
Assay [17] relates to DNA aptamer or structured DNA CTTACGACTGGGATGTGTTGTTAGTGCTGTCGGATCCGGTCGTAAG
Assay [18] has as its system DNA aptamer or structured DNA CTTACGACAAGGGATGTGTAGTTAGTGGTCGGATCCGAGTCGTAAG
In assay [19] the test system is DNA aptamer or structured DNA CTTACGACCGGCGGAAGGCTGGAGGGGTTGGGGGAGGTGTCGTAAG
Assay [20] deals with DNA aptamer or structured DNA CTTACGACGAGCATCGGTTTTTTCGGTGATGTCTGGGAGTCGTAAG
In assay [21] the test system is DNA aptamer or structured DNA CTTACGACGCGGACGTTGTGGGGCGTGGCAGTCGGTGAGTCGTAAG
Assay [22] has as its system DNA aptamer or structured DNA CTTACGACGCGGACGTTGTGGGGCGTGGCAGTCGGTGGGTCGTAAG
Assay [23] has as its system DNA aptamer or structured DNA CTTACGACTAGTGGAGTAGGGTCGGGTAGTGGGCCTCAGTCGTAAG
The test system of assay [24] is DNA aptamer or structured DNA GGGACGACGGGATTCGGATCGTGGAACAGTGCCTCGTCGTCGTCCC
Assay [25] has as its system DNA aptamer or structured DNA GGGACGACGGGATGGTAAGTGGCAGGTCGTTGGAATTTCTACTGTATCGTCGTCCC
The subject of assay [26] is DNA aptamer or structured DNA GGGACGACGGGGCTCTTACCCTGGAGGGTAGAAGGGGAGGTGTGGTCAGTCGTCCC
The subject of assay [27] is DNA aptamer or structured DNA TTCAAATCTGAGCAGCCTAGTTACTGACGGGTTTATAGTACTCGCATTGAGTCTAGATTTGAA
Assay [28] relates to DNA aptamer or structured DNA GGGACGACACGTGTGGCTGGTAGGGTAGGTCTTGTCGCGTCGTCCC
In assay [29] the test system is DNA aptamer or structured DNA GGGACGACGGCAGGGTGTTGGTGGGGTAGGTCAATGTAGTCGTCCC
Assay [30] concerns DNA aptamer or structured DNA GGGACGACGGCTTGCATTGAGCAGAAGGGGTACACGCTGTCGTCCC
For assay [31], the system named is DNA aptamer or structured DNA GGGACGACGGGGCTGTGGGAGGGGGTTCATGGGTCCCGGTCGTCCC
The test system of assay [32] is DNA aptamer or structured DNA GGGACGACTGCTTGGGTAGGTCGGGCTTGGGTTCGGCGGTCGTCCC
Assay [33] concerns DNA aptamer or structured DNA GGGACGACTGCTTGGGTAGGTCGGGTTTGGGTTCGGCGGTCGTCCC
For assay [34], the system named is DNA aptamer or structured DNA TTCAAATCTAGCGCAGGTAGGGGTGTAGGTGTGGGGGTAAGTCTAGATTTGAA
Assay [35] relates to DNA aptamer or structured DNA TTCAAATCTGGCGTTCGGGTTTGTCTTATTGATGGATCAAGTCTAGATTTGAA
For binding call in this document: call rule not given here.

In the case of `CN1C2CCC1[C@@H](C(=O)O)[C@@H](OC(=O)c1ccccc1)C2` (some centres not stated), the binding call in assay [1] is reported as “no binding”; in [2] it was “binds”; in assay [3], “binds”; in [4] it was “binds”; in assay [5] it was “no binding”; in [6], “binds”. In addition, the binding call in assay [7] was “binds”; in assay [8], “binds”; in [9], “no binding”; in assay [10], “binds”; in assay [11], “no binding”; in [12] it was “no binding”. Besides, the binding call is recorded as “no binding” in assay [13]; “no binding” in assay [14]; “no binding” in assay [15]; “binds” in [16]; “binds” in assay [17].
On to `CC(=O)Nc1ccc(O)cc1`, for which the binding call in assay [1], in [18], in assay [3], in [4], in assay [5] and in assay [6] was “no binding” in each case. Further, the binding call in assay [19] is on record as “no binding”; in assay [20], “no binding”; in [21] it was “no binding”; in assay [22], “no binding”; in assay [8], “binds”; in [9], “no binding”. Moreover, the binding call in [10], in assay [11], in assay [12], in assay [13], in assay [15] and in assay [23] was “no binding” in each case. For the same compound, the binding call in assay [16], in [17] and in assay [24] was “no binding” throughout.
In the case of `CCCC(C(=O)c1ccc2c(c1)OCO2)N1CCCC1` (configuration not stated), the binding call in assay [1] is reported as “binds”; in [18] it was “no binding”; in assay [2], “no binding”; in assay [3] it was “binds”; in assay [4] it was “binds”; in assay [5], “binds”. In addition, the binding call in assay [6] is reported as “no binding”; in [7], “no binding”; in assay [21], “no binding”; in assay [8] it was “binds”; in [9] it was “no binding”; in assay [10], “no binding”. Besides, the binding call in assay [11] is “binds”; in assay [12] it was “no binding”; in [13] it was “no binding”; in assay [14], “no binding”; in assay [15] it was “binds”; in assay [16], “binds”. Further, the binding call in assay [17] is recorded as “binds”; in assay [25], “no binding”; in [26], “binds”; in assay [27], “no binding”.
For the compound `COC(=O)[C@@H]1C2CCC(C[C@@H]1OC(=O)c1ccccc1)N2C` (some centres not stated), the Kd in assay [18] was found to be 2650 nM; in assay [2] it was 123 nM; in [3], 155 nM; in assay [4], 76 nM; in assay [5], 266 nM; in assay [7], 53 nM. For the same compound, the Kd in [21] worked out at 1030 nM; in assay [22], 372 nM; in [8], 185 nM; in [10], 57 nM; in [12], 270 nM; in assay [13] it was 735 nM. Besides, the results for the Kd in [15], in [16] and in assay [17] were 122 nM, 61 nM and 204 nM, respectively. Moreover, the binding call in assay [19] is “binds”; in assay [20], “no binding”; in assay [23] it was “no binding”; in assay [28], “binds”; in assay [29] it was “no binding”; in assay [30], “no binding”. Besides, the binding call is listed as “no binding” in assay [25]; “no binding” in [24]; “binds” in assay [26]; “no binding” in assay [31]; “no binding” in assay [32]; “binds” in assay [33]. Besides, the binding call in [34], in assay [27] and in [35] was “no binding” in each case.
As for `CC(=O)Oc1ccc2c3c1O[C@H]1[C@@H](OC(C)=O)C=C[C@H]4[C@@H](C2)N(C)CC[C@@]341`, the binding call in assay [1], in assay [2], in assay [3], in [4], in assay [5] and in [6] was “no binding” in each case. Besides, the binding call is listed as “no binding” in assay [19]; “no binding” in [7]; “no binding” in assay [20]; “binds” in assay [8]; “no binding” in assay [9]; “no binding” in assay [12]. Further, the binding call in [23], in assay [16], in [17], in [28], in assay [29] and in [33] was “no binding” in each case. Besides, the binding call in assay [34] and in assay [35] was “no binding” each time. Also, the Kd in [24] is 850 nM; in [31] it was 6490 nM.

(Values after the AptaBench aptamer set (doi:10.1093/nar/gkaf219).)
